The source of these data is patent US20250108032A1, “METHODS OF TREATING TYPE 1 DIABETES AND KIDNEY DISEASE” (LEXICON PHARMACEUTICALS, INC., priority 2023, published 2025).

The test system of data set [1] is T1D patients. The note with it: cited from earlier work.
Data set [2] concerns patients with type 2 diabetes mellitus and CKD (eGFR 25 to 60 ml per minute per 1.73 m^2). The class given is in vivo. From the text: The cardiorenal protective properties of sotagliflozin in patients with type 2 diabetes informed research that led to the present invention. […] The primary end point was changed during the trial to the composite of the total number of deaths from cardiovascular causes, hospitalizations for heart failure, and urgent visits for heart failure.
Of 19.188 patients screened, 10,584 were enrolled, with 5,292 assigned to the sotagliflozin group and 5,292 assigned to the placebo group and followed for a median of 16 months. The rate of primary end-point events was 5.6 events per 100 patient-years in the sotagliflozin group and 7.5 events per 100 patient-years in the placebo group: hazard ratio, 0.74; 95% confidence interval (CI), 0.63 to 0.88; P<0.001. The rate of deaths from cardiovascular causes per 100 patient-years was 2.2 with sotagliflozin and 2.4 with placebo (hazard ratio, 0.90; 95% CI, 0.73 to 1.12; P=0.35). For the original coprimary end point of the first occurrence of death from cardiovascular causes, nonfatal myocardial infarction, or nonfatal stroke, the hazard ratio was 0.84 (95% CI, 0.72 to 0.99); for the original coprimary end point of the first occurrence of death from cardiovascular causes or hospitalization for heart failure, the hazard ratio was 0.77 (95% CI, 0.66 to 0.91). Diarrhea, genital mycotic infections and volume depletion were more common with sotagliflozin than with placebo.
Table 1 provides the number and type of cardiorenal events observed during the trial, wherein each of the sotagliflozin and placebo groups contained 5292 patients.

The mark [3] stands for this setting: T2D and CKD, 5292 patients per group.

Consider `CCOc1ccc(Cc2cc([C@@H]3O[C@H](SC)[C@@H](O)[C@H](O)[C@H]3O)ccc2Cl)cc1` [sotagliflozin, (2S,3R,4R,5S,6R)-2-(4-chloro-3-(4-ethoxybenzyl)phenyl)-6-(methylthio)tetrahydro-2H-pyran-3,4,5-triol], for which, in data set [1], the albuminuria result is “reduction in albuminuria”, the blood pressure result is reported as “lowered blood pressure”, the eGFR entry is listed as “acute change in eGFR” and the hemoconcentration result is “induced mild hemoconcentration”. For the same compound, in data set [1], the “risk of diabetic ketoacidosis (DKA)” value was “increased”. Further, in data set [2] (setting [3]), the “50% decline in eGFR (sustained or last value), n (%)” value is listed as 75 (1.4) n (%); the “Chronic dialysis or transplant, n (%)” value is 15 (0.3) n (%); the “End-stage kidney disease, n (%)” value is given as 50 (0.9) n (%); the “Renal death, n (%)” value is listed as 8 (0.2) n (%). For the same compound, the “eGFR <15 mL/min/m^2 (sustained or last value), n (%)” value in data set [2] (setting [3]) is reported as 41 (0.8) n (%). For the same compound, the “First event in composite, n (%)” value in data set [2] (cardiorenal composite, T2D and CKD, 5292 patients per group, median follow-up 16 months) is listed as 239 (4.5) n (%). Also, the “risk of cardiorenal endpoints” value in data set [2] (compared to placebo, FIG. 1) was “significantly reduced”. In data set [2] (composite of deaths from cardiovascular causes, hospitalizations for heart failure, urgent visits for heart failure, median 16 months), the “rate of primary end-point events” value is on record as 5.6 events per 100 patient-years. The “Diarrhea, genital mycotic infections and volume depletion” value in data set [2] (human, in vivo) is on record as “more common”. Also, in data set [2] (median follow-up 16 months), the “rate of deaths from cardiovascular causes” value came out at 2.2 per 100 patient-years. In data set [2] (vs placebo), the “50% decline in eGFR (sustained or last value), HR (95% CI)” value is on record as 0.60 (0.45, 0.81); the “End-stage kidney disease, HR (95% CI)” value was 0.63 (0.45, 0.91); the “Renal death, HR (95% CI)” value is reported as 1.59 (0.52, 4.86); the “eGFR <15 mL/min/m^2 (sustained or last value), HR (95% CI)” value is 0.60 (0.41, 0.88). The “primary end point hazard ratio” value in data set [2] (vs placebo, 95% CI 0.63 to 0.88) is on record as 0.74. In data set [2] (vs placebo, 95% CI 0.66 to 0.91), the “hazard ratio, original coprimary end point: first occurrence of death from cardiovascular causes or hospitalization for heart failure” value is reported as 0.77. Further, the “hazard ratio, original coprimary end point: first occurrence of death from cardiovascular causes, nonfatal myocardial infarction, or nonfatal stroke” value in data set [2] (vs placebo, 95% CI 0.72 to 0.99) is reported as 0.84. Also, the “First event in composite, HR (95% CI)” value in data set [2] (vs placebo, T2D and CKD) is reported as 0.77 (0.65, 0.91).
